Results: PubChem BioAssay AID2060327 (Molecular Pharmacology Branch, DTP, NCI, 2025)

Test system: PC-3 multi-cell spheroids, viability
Test: Anticancer human tumor PC-3 cell line growth inhibition [IpAb];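 also: spheroids exposed to compounds for 7 days before readout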;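 as to viability, T/C: 100% = DMSO vehicle control wells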
Conditions: for IC50: curve of first compound; for viability, T/C: stronger effect = lower value
Source text: Combinatorial screen of targeted agents with ipatasertib and abemaciclib in multi-cell type tumor spheroids
A high-throughput screen of multi-cell type tumor spheroids was designed to identify active combinations of targeted small molecules and ipatasertib or abemaciclib. Complex spheroids include a stromal component modeled by human endothelial cells (HUVEC) and fibroblasts modeled by human mesenchymal stem cells (MSCs). The concentration ranges selected for each drug and investigational agent were based upon clinically achievable concentrations if the clinical Cmax of the agent was known.
Compounds. The drugs and investigational agents: ipatasertib (NSC767898), abemaciclib(NSC768073), selumetinib (NSC741078), trametinib (758246), adavosertib (NSC754352), everolimus (NSC733504), sapanisertib (NSC764658), vemurafenib (NSC761431), venetoclax (NSC766270), copanlisib (NSC809693), apelisib (NSC765974), palbociblib (NSC758247), vemurafenib (NSC761431), dabrafenib (NSC764134), ravoxertinib (NSC781343), BMS-387032 (NSC767048), sotorasib (NSC818433), talazoparib (NSC767125) and afursertib (NSC778305), were obtained from the National Cancer Institute (NCI) Developmental Therapeutics Program Chemical Repository. The FDA-approved anticancer drug set is available from the NCI Developmental Therapeutics Program. […] The stock solutions were prepared in dimethyl sulfoxide (DMSO, Sigma-Aldrich, St. Louis, MO, cat. D2650) at 800-fold the tested concentration and stored at -70 degrees C prior to their use. All drugs and investigational agents were tested over a range starting from a high concentration at or near the clinical Cmax and decreasing in half-log increments. If the clinical Cmax for an agent had not been determined, the highest concentration tested was 10 microM.
NCI60 Cell Culture. NCI60 cell lines were obtained from the NCI Developmental Therapeutics Program Tumor Repository. For each lot of cells, the Repository performed Applied Biosystems AmpFLSTR Identifiler testing with PCR amplification to confirm consistency with the published Identifier STR profile for each cell line. Cells were kept in continuous culture for no more than 20 passages. The optimal seeding densities for each of the cell lines at each time point assessed were determined prior to performing the concentration response studies. Briefly, the NCI60 human tumor lines were grown as monolayers in RPMI 1640 medium supplemented with 10% FBS and 2 mmol/L L-glutamine.
An additional 9 lines were from the NCI60 cell line panel including MDA-MB-231 breast carcinoma, MDA-MB-468 breast carcinoma, MCF7 breast carcinoma, Hs578T breast carcinoma, MALME-3M melanoma, SK-MEL-2 melanoma, SK-OV-3 ovarian carcinoma, DU-145 prostate carcinoma, PC-3 prostate carcinoma, all cell lines along with major genetic alterations are listed on Table 2. Pooled donor human umbilical vein endothelial cells (HUVEC, Lonza, cat. CC-2519) and human mesenchymal stem cells (hMSC, Lonza, cat. PT-2501) were purchased from Lonza (Walkersville, MD).
PDMR cell lines were grown in complete medium (DC medium): Dulbecco's modified Eagle's medium (DMEM)/F12 supplemented with 5% fetal bovine serum (FBS), 2 mM L-glutamine, 100 U/mL penicillin and 100 µg/ml streptomycin, 0.4 µg/ml hydrocortisone, 10 ng/ml epidermal growth factor (EGF) recombinant human protein, 24 µg/mL adenine, and 0.1 mg/mL primocin. During culture from frozen stock vials, PDMR cells were cultured in the same medium containing 10 µM Y-27632 (see Table 3). The PDCs were cultured in complete DMEM/F12 media without 10 microM Y-27632 dihydrochloride for at least two passages prior to the screen. The pooled donor HUVEC and hMSC were cultured in endothelial cell growth medium 2 (PromoCell, Heidelberg, Germany, cat. C-22011) and mesenchymal stem cell growth medium 2 (PromoCell, cat. C-28009), respectively. For all experiments, HUVEC and hMSC were used at passages </=5.
[…]

[1] = second compound 0.1 µM, first compound 0.0316 µM
[2] = second compound 0.1 µM, first compound 0.1 µM
[3] = second compound 0.1 µM, first compound 0.316 µM
[4] = second compound 0.1 µM, first compound 1 µM
[5] = second compound 0.316 µM, first compound 0.0316 µM
[6] = second compound 0.316 µM, first compound 0.1 µM
[7] = second compound 0.316 µM, first compound 0.316 µM
[8] = second compound 0.316 µM, first compound 1 µM
[9] = second compound 1 µM, first compound 0.0316 µM
[10] = second compound 1 µM, first compound 0.1 µM
[11] = second compound 1 µM, first compound 0.316 µM
[12] = second compound 1 µM, first compound 1 µM
[13] = second compound 3.16 µM, first compound 0.0316 µM
[14] = second compound 3.16 µM, first compound 0.1 µM
[15] = second compound 3.16 µM, first compound 0.316 µM
[16] = second compound 3.16 µM, first compound 1 µM
[17] = second compound 10 µM, first compound 0.0316 µM
[18] = second compound 10 µM, first compound 0.1 µM
[19] = second compound 10 µM, first compound 0.316 µM
[20] = second compound 10 µM, first compound 1 µM

CC(=O)c1c(C)c2cnc(Nc3ccc(N4CCNCC4)cn3)nc2n(C2CCCC2)c1=O + CC(C)NCC(C(=O)N1CCN(c2ncnc3c2C(C)CC3O)CC1)c1ccc(Cl)cc1
IC50 (second compound 0.1 µM): > 300 nM
IC50 (second compound 0.316 µM): < 0.949 nM
IC50 (second compound 1 µM): < 0.949 nM
IC50 (second compound 3.16 µM): < 0.949 nM
IC50 (second compound 10 µM): < 0.949 nM
viability, T/C (second compound 0.1 µM, first compound 0.000949 µM): 74.1%
viability, T/C (second compound 0.1 µM, first compound 0.003 µM): 63.7%
viability, T/C (second compound 0.1 µM, first compound 0.00949 µM): 51%
viability, T/C (second compound 0.1 µM, first compound 0.03 µM): 51.6%
viability, T/C (second compound 0.1 µM, first compound 0.0949 µM): 52.9%
viability, T/C (second compound 0.1 µM, first compound 0.3 µM): 48.2%
viability, T/C (second compound 0.316 µM, first compound 0.000949 µM): 44.5%
viability, T/C (second compound 0.316 µM, first compound 0.003 µM): 43.3%
viability, T/C (second compound 0.316 µM, first compound 0.00949 µM): 43.8%
viability, T/C (second compound 0.316 µM, first compound 0.03 µM): 40.1%
viability, T/C (second compound 0.316 µM, first compound 0.0949 µM): 33.8%
viability, T/C (second compound 0.316 µM, first compound 0.3 µM): 30.7%
viability, T/C (second compound 1 µM, first compound 0.000949 µM): 26.3%
viability, T/C (second compound 1 µM, first compound 0.003 µM): 23.8%
viability, T/C (second compound 1 µM, first compound 0.00949 µM): 19.6%
viability, T/C (second compound 1 µM, first compound 0.03 µM): 17.2%
viability, T/C (second compound 1 µM, first compound 0.0949 µM): 15.8%
viability, T/C (second compound 1 µM, first compound 0.3 µM): 14.8%
viability, T/C (second compound 3.16 µM, first compound 0.000949 µM): 15.3%
viability, T/C (second compound 3.16 µM, first compound 0.003 µM): 14.2%
viability, T/C (second compound 3.16 µM, first compound 0.00949 µM): 14.2%
viability, T/C (second compound 3.16 µM, first compound 0.03 µM): 13.3%
viability, T/C (second compound 3.16 µM, first compound 0.0949 µM): 11.3%
viability, T/C (second compound 3.16 µM, first compound 0.3 µM): 10.7%
viability, T/C (second compound 10 µM, first compound 0.000949 µM): 13.5%
viability, T/C (second compound 10 µM, first compound 0.003 µM): 12.9%
viability, T/C (second compound 10 µM, first compound 0.00949 µM): 12.5%
viability, T/C (second compound 10 µM, first compound 0.03 µM): 11.6%
viability, T/C (second compound 10 µM, first compound 0.0949 µM): 11.5%
viability, T/C (second compound 10 µM, first compound 0.3 µM): 10.8%

COc1c(OCCCN2CCOCC2)ccc2c3n(c(=NC(=O)c4cnc(N)nc4)nc12)CCN3 + CC(C)NCC(C(=O)N1CCN(c2ncnc3c2C(C)CC3O)CC1)c1ccc(Cl)cc1
IC50 (second compound 0.1 µM): 21.4 nM
IC50 (second compound 0.316 µM): < 3.16 nM
IC50 (second compound 1 µM): < 3.16 nM
IC50 (second compound 3.16 µM): < 3.16 nM
IC50 (second compound 10 µM): < 3.16 nM
viability, T/C (second compound 0.1 µM, first compound 0.00316 µM): 81.5%
viability, T/C (second compound 0.1 µM, first compound 0.01 µM): 59.7%
viability, T/C [1]: 48.1%
viability, T/C [2]: 18%
viability, T/C [3]: 6.89%
viability, T/C [4]: 4.7%
viability, T/C (second compound 0.316 µM, first compound 0.00316 µM): 45.1%
viability, T/C (second compound 0.316 µM, first compound 0.01 µM): 40%
viability, T/C [5]: 29.5%
viability, T/C [6]: 12.2%
viability, T/C [7]: 5.71%
viability, T/C [8]: 4.51%
viability, T/C (second compound 1 µM, first compound 0.00316 µM): 24.3%
viability, T/C (second compound 1 µM, first compound 0.01 µM): 18.7%
viability, T/C [9]: 14%
viability, T/C [10]: 8.53%
viability, T/C [11]: 5.57%
viability, T/C [12]: 4.27%
viability, T/C (second compound 3.16 µM, first compound 0.00316 µM): 15.1%
viability, T/C (second compound 3.16 µM, first compound 0.01 µM): 12.5%
viability, T/C [13]: 11.1%
viability, T/C [14]: 7.88%
viability, T/C [15]: 4.58%
viability, T/C [16]: 3.91%
viability, T/C (second compound 10 µM, first compound 0.00316 µM): 12.8%
viability, T/C (second compound 10 µM, first compound 0.01 µM): 11.5%
viability, T/C [17]: 10.3%
viability, T/C [18]: 6.13%
viability, T/C [19]: 4.33%
viability, T/C [20]: 4.03%

Cc1nc(NC(=O)N2CCCC2C(N)=O)sc1-c1ccnc(C(C)(C)C(F)(F)F)c1 (stereo not given) + CC(C)NCC(C(=O)N1CCN(c2ncnc3c2C(C)CC3O)CC1)c1ccc(Cl)cc1
IC50 (second compound 0.1 µM): 955 nM
IC50 (second compound 0.316 µM): < 31.6 nM
IC50 (second compound 1 µM): < 31.6 nM
IC50 (second compound 3.16 µM): < 31.6 nM
IC50 (second compound 10 µM): < 31.6 nM
viability, T/C [1]: 60.7%
viability, T/C [2]: 51.8%
viability, T/C [3]: 47.8%
viability, T/C [4]: 49.5%
viability, T/C (second compound 0.1 µM, first compound 3.16 µM): 41.8%
viability, T/C (second compound 0.1 µM, first compound 10 µM): 10.6%
viability, T/C [5]: 43.7%
viability, T/C [6]: 44.4%
viability, T/C [7]: 39.2%
viability, T/C [8]: 30.2%
viability, T/C (second compound 0.316 µM, first compound 3.16 µM): 24.6%
viability, T/C (second compound 0.316 µM, first compound 10 µM): 9.66%
viability, T/C [9]: 26.5%
viability, T/C [10]: 24.1%
viability, T/C [11]: 17.8%
viability, T/C [12]: 15.8%
viability, T/C (second compound 1 µM, first compound 3.16 µM): 12.5%
viability, T/C (second compound 1 µM, first compound 10 µM): 5.72%
viability, T/C [13]: 14.2%
viability, T/C [14]: 14.7%
viability, T/C [15]: 11.8%
viability, T/C [16]: 11.4%
viability, T/C (second compound 3.16 µM, first compound 3.16 µM): 8.54%
viability, T/C (second compound 3.16 µM, first compound 10 µM): 3.24%
viability, T/C [17]: 13.4%
viability, T/C [18]: 12.8%
viability, T/C [19]: 10.5%
viability, T/C [20]: 9.02%
viability, T/C (second compound 10 µM, first compound 3.16 µM): 7.87%
viability, T/C (second compound 10 µM, first compound 10 µM): 2.4%
